Five molecules from patent publication US11040987B2 (TenNor Therapeutics Limited, priority 2019, dated 2021) can be followed below.

For experiment [1], the system named is A. baumannii ATCC 19606. As to the kind of experiment: MIC determination, broth microdilution, ESKAPE panel. The note with it: Acinetobacter baumannii, ATCC19606; iron-depleted cation-adjusted Mueller-Hinton broth, 2,2-dipyridyl 160 μM; 37° C., 18-20 hours; read-out: MIC A. baumannii ATCC 19606. The format is cell-based. Put shortly:
(§1)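 Inoculum set at […]. MICs come from broth microdilution run according to CLSI, minor modifications applied.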

Experiment [2] deals with E. faecium ATCC 700221. The experiment is described as above. Type of experiment: cell-based. The note with it: Enterococcus faecium, ATCC700221; iron-depleted cation-adjusted Mueller-Hinton broth, 2,2-dipyridyl 160 μM; 37° C., 18-20 hours; read-out: MIC E. faecium ATCC 700221. Put shortly: as §1
Experiment [3] concerns Escherichia coli ATCC 25922. The experiment is described as above. The note with it: ATCC25922, iron-depleted cation-adjusted Mueller-Hinton broth, 2,2-dipyridyl 160 μM, 37° C., 18-20 hours, read-out: MIC E. coli ATCC 25922. Type of experiment: cell-based. Put shortly:
as §1

In experiment [4] the test system is K. pneumoniae ATCC 43816. The experiment is described as above. Type of experiment: cell-based. The note with it: Klebsiella pneumoniae, ATCC43816; iron-depleted cation-adjusted Mueller-Hinton broth, 2,2-dipyridyl 160 μM; 37° C., 18-20 hours; read-out: MIC K. pneumoniae ATCC 43816. Put shortly: as §1
In experiment [5] the test system is P. aeruginosa ATCC 27853. The experiment is described as above. Type of experiment: cell-based. The note with it: Pseudomonas aeruginosa, ATCC27853; iron-depleted cation-adjusted Mueller-Hinton broth, 2,2-dipyridyl 160 μM; 37° C., 18-20 hours; read-out: MIC P. aeruginosa ATCC 27853. Put shortly: as §1
Experiment [6] deals with S. aureus ATCC 29213. The experiment is described as above. The note with it: Staphylococcus aureus, ATCC29213; iron-depleted cation-adjusted Mueller-Hinton broth, 2,2-dipyridyl 160 μM; 37° C., 18-20 hours; read-out: MIC S. aureus ATCC 29213. The format is cell-based. Put shortly: as §1
The subject of experiment [7] is A.b TNP 41704. Put plainly: MIC against A. baumannii clinical isolates, alone and in combination with antibiotics. The format is cell-based. The note with it: for MIC: Acinetobacter baumannii, TNP41704, Compounds alone, read-out: MIC A.b TNP 41704.
The subject of experiment [8] is A.b TNP 41708. The description is as above. The format is cell-based. The note with it: for MIC: Acinetobacter baumannii, TNP41708, read-out: MIC A.b TNP 41708. Put shortly:
as §1

For experiment [9], the system named is A.b TNP 41709. Described as above. Type of experiment: cell-based. The note with it: for MIC: Acinetobacter baumannii, TNP41709, Compounds alone, read-out: MIC A.b TNP 41709.
Experiment [10] deals with T1, AmpC_PA (Pseudomonas aeruginosa, UniProt P24735).
T1 construct: made in house
Put plainly: β-lactamase inhibition, spectrophotometric assay of nitrocefin hydrolysis. Type of experiment: biochemical, P. aeruginosa. An excerpt:
(§2) Hydrolytic inactivation of the β-lactam antibiotics by β-lactamases is the most widespread drug resistant mechanism and the most challenge clinically among Gram-negative bacterial pathogens. Based on the amino acid sequences, the β-lactamases are grouped into four classes (Ambler classification), of which A, C and D are serine hydrolases and B encompasses metallo-β-lactamases. The IC50 of selected derivatives disclosed herein (identified with reference to example number) plus six reference β-lactam or β-lactamase inhibitors were determined against 7 representative β-lactamases of various classes in a standard spectrophotometric assay of nitrocefin hydrolysis. The assay is performed in 384-well plate. The seven recombinant β-lactamases AmpC_AB (from A. baumannii), AmpC_PA (from P. aeruginosa), KPC-2, NDM-1, IMP-1, VIM-1 and OXA 24/40) are expressed and purified. The reaction buffer for class A, C and D enzymes is 100 mM Na2HPO4—KH2PO4 (pH 7.1) plus 0.005% Tween-20, and for class B enzymes 10 μM ZnSO4 is added. […] The 50 μL of reaction solution composed of 2 pM of β-lactamase, 200 μM of nitrocefin and series of 3-fold dilutions of test or control compounds are added by Cybio SELMA system into 384-plate and incubated in dark at 25° C. for 2 hours. The OD490 is read in MC SpectraMax Plus384 plate reader.

In experiment [11] the target is AmpC_AB (Acinetobacter baumannii, UniProt Q6DRA1). Described as above. The format is biochemical. The note with it: Class C β-lactamase; 200 μM nitrocefin, 25° C., 2 hours; read-out: IC50 AmpC_AB.
Source text: as §2

The target in experiment [12] is T2, IMP-1 (Serratia marcescens, UniProt P52699).
T2 construct: made in house
Described as above. Type of experiment: biochemical. The note with it: class B β-lactamase, 10 μM ZnSO4; 200 μM nitrocefin, 25° C., 2 hours; read-out: IC50 IMP-1.
Source text: as §2

The target in experiment [13] is T3, KPC-2 (Klebsiella pneumoniae, UniProt Q9F663).
T3 construct: made in house
The description is as above. The note with it: for IC50: class A β-lactamase, 200 μM nitrocefin, 25° C., 2 hours, read-out: IC50 KPC-2. The format is biochemical.
Source text: as §2

Experiment [14] concerns the target T4, NDM-1 (Klebsiella pneumoniae, UniProt C7C422).
T4 construct: made in house
Described as above. Type of experiment: biochemical. The note with it: class B β-lactamase, 10 μM ZnSO4; 200 μM nitrocefin, 25° C., 2 hours; read-out: IC50 NDM-1.
Source text: as §2

In experiment [15] the target is T5, OXA 24/40 (Acinetobacter baumannii, UniProt Q8RLA6).
T5 construct: made in house
The description is as above. Type of experiment: biochemical.
Source text: as §2

Experiment [16] concerns the target T6, VIM-1 (Pseudomonas aeruginosa, UniProt A0A0F7KYQ8).
T6 construct: made in house
The experiment is described as above. Type of experiment: biochemical. The note with it: class B β-lactamase, 10 μM ZnSO4; 200 μM nitrocefin, 25° C., 2 hours; read-out: IC50 VIM-1.
Source text: as §2

The structures appear in SMILES notation. In brackets after ≈: the same amount, converted by molar mass. A value given as a limit tells only on which side of the number the result lay.

T3 sequence (Q9F663 25-293, looked up, species assumed): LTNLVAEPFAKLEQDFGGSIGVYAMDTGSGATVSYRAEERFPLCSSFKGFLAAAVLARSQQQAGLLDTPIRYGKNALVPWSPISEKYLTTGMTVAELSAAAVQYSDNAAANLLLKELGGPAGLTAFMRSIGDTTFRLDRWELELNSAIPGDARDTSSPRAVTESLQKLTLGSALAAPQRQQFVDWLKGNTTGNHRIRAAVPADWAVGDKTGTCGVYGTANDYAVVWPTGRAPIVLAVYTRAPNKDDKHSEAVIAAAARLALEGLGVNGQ
T5 sequence (Q8RLA6 22-275): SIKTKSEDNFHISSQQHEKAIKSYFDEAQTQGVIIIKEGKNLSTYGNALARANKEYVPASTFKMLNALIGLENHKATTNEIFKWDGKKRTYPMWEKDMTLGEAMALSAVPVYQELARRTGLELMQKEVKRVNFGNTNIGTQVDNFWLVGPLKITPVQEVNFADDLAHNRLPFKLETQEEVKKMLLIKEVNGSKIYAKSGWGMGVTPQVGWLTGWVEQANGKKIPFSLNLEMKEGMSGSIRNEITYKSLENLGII
T1 sequence (P24735 27-397): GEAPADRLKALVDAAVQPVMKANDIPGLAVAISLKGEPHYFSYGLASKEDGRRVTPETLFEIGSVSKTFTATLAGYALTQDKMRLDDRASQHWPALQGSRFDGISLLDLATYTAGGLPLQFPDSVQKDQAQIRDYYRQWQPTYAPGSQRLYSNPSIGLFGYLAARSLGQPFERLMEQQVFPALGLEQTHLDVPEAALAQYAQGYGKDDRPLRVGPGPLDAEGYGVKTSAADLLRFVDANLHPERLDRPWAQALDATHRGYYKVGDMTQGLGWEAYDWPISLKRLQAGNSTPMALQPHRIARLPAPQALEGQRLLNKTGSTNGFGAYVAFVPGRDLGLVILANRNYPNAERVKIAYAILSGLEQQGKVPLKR
T4 sequence (C7C422 29-270, looked up, species assumed): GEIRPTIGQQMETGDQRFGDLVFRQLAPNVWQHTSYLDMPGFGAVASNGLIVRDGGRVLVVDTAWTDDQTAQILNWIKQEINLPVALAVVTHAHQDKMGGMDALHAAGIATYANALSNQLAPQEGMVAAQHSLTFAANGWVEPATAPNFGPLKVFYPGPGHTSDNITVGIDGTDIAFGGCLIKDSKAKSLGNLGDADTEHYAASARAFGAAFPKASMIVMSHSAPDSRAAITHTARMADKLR
T2 sequence (P52699 19-246, looked up, species assumed): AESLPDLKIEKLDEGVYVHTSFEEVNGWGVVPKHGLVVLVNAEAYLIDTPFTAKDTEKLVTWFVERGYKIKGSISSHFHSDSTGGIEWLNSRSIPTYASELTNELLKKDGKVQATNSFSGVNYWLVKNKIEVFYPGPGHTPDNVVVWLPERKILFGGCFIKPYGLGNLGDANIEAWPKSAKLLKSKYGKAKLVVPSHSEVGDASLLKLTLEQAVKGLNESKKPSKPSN

`C[C@]1(/C=N/NC(=O)c2ccc(O)c(O)c2)[C@H](C(=O)O)N2C(=O)C[C@H]2S1(=O)=O` [Example 5, (2S,3R,5R)-3-((E)-(2-(3,4-dihydroxybenzoyl)hydrazono)methyl)-3-methyl-7-oxo-4-thia-1-azabicyclo[3.2.0]heptane-2-carboxylic acid 4,4-dioxide]: the MIC was 4 µg/mL (≈ 10.1 µM) in [1]; > 128 µg/mL in [2]; 64 µg/mL (≈ 161 µM) in experiment [3]; 32 µg/mL (≈ 80.5 µM) in experiment [4]; > 128 µg/mL in experiment [5]; 128 µg/mL (≈ 322 µM) in [6]. Moreover, the minimum inhibitory concentration (MIC) in experiment [7] was > 128 µg/mL; in experiment [8], > 128 µg/mL; in experiment [9] it was 32 µg/mL. The “MIC A.b TNP 41704” value in experiment [7] (Compounds + meropenem (1:1)) and in experiment [7] (Compounds + sulbactam (1:1)) was 4 µg/mL throughout. Further, the figures for the “MIC A.b TNP 41708” value in experiment [8] (Compounds + meropenem (1:1)) and in experiment [8] (Compounds + sulbactam (1:1)) were 4 µg/mL and 8 µg/mL, respectively. Moreover, the figures for the “MIC A.b TNP 41709” value in experiment [9] (Compounds + meropenem (1:1)) and in experiment [9] (Compounds + sulbactam (1:1)) were 2 µg/mL and 4 µg/mL, respectively. The half-maximal inhibitory concentration (IC50) is 1.72 µM in [10]; 1.04 µM in experiment [11]; > 200 µM in experiment [12]; > 200 µM in experiment [13]; > 200 µM in [14]; 11.6 µM in experiment [15]. In [16], the IC50 was > 200 µM.

Consider `C[C@]1(/C=N/NC(=O)C2CCN(C(=O)c3ccc(O)c(O)c3Cl)C2)[C@H](C(=O)O)N2C(=O)C[C@H]2S1(=O)=O` (stereo partly drawn) [Example 38, (2S,3R,5R)-3-((E)-(2-(1-(2-chloro-3,4-dihydroxybenzoyl)pyrrolidine-3-carbonyl)hydrazono)methyl)-3-methyl-7-oxo-4-thia-1-azabicyclo[3.2.0]heptane-2-carboxylic acid 4,4-dioxide], for which the minimum inhibitory concentration (MIC) is 8 µg/mL (≈ 15.1 µM) in experiment [1]; > 128 µg/mL in experiment [2]; > 128 µg/mL in experiment [3]; 32 µg/mL (≈ 60.5 µM) in experiment [4]; > 128 µg/mL in experiment [5]; 128 µg/mL (≈ 242 µM) in experiment [6]. In addition, the minimum inhibitory concentration (MIC) in [7], in [8] and in experiment [9] was > 128 µg/mL in each case. Besides, the “MIC A.b TNP 41704” value in experiment [7] (Compounds + meropenem (1:1)) and in experiment [7] (Compounds + sulbactam (1:1)) was 4 µg/mL throughout. The “MIC A.b TNP 41708” value in experiment [8] (Compounds + meropenem (1:1)) came to 4 µg/mL; in [8] (Compounds + sulbactam (1:1)), 8 µg/mL. For the same molecule, the entries for the “MIC A.b TNP 41709” value in [9] (Compounds + meropenem (1:1)) and in experiment [9] (Compounds + sulbactam (1:1)) were 2 µg/mL and 8 µg/mL, respectively. Also, the concentration for half-maximal inhibition (IC50) in experiment [10] was 2.38 µM; in experiment [11], 7.62 µM; in experiment [12], > 200 µM; in experiment [13] it was > 200 µM; in experiment [14], > 200 µM; in experiment [15], 5.93 µM. The IC50 in experiment [16] is > 200 µM.

On to `C[C@]1(/C=N/NC(=O)CNC(=O)c2ccc(O)c(O)c2)[C@H](C(=O)O)N2C(=O)C[C@H]2S1(=O)=O` [Example 64, (2S,3R,5R)-3-((E)-(2-(2-(3,4-dihydroxybenzamido)acetyl)hydrazono)methyl)-3-methyl-7-oxo-4-thia-1-azabicyclo[3.2.0]heptane-2-carboxylic acid 4,4-dioxide], for which the minimal inhibitory concentration (MIC) is 8 µg/mL (≈ 17.6 µM) in experiment [1]; > 128 µg/mL in experiment [2]; > 128 µg/mL in [3]; 128 µg/mL (≈ 282 µM) in experiment [4]; > 128 µg/mL in experiment [5]; 64 µg/mL (≈ 141 µM) in experiment [6]. Further, the MIC in experiment [7], in [8] and in experiment [9] was > 128 µg/mL in each case. The figures for the “MIC A.b TNP 41704” value in experiment [7] (Compounds + meropenem (1:1)) and in experiment [7] (Compounds + sulbactam (1:1)) were 2 µg/mL and 4 µg/mL, respectively. The figures for the “MIC A.b TNP 41708” value in experiment [8] (Compounds + meropenem (1:1)) and in experiment [8] (Compounds + sulbactam (1:1)) were 4 µg/mL and 8 µg/mL, respectively. Besides, the “MIC A.b TNP 41709” value in experiment [9] (Compounds + meropenem (1:1)) stood at 2 µg/mL; in experiment [9] (Compounds + sulbactam (1:1)), 4 µg/mL. Besides, the IC50 in [10] is 0.641 µM; in experiment [11] it was 0.474 µM; in [12], > 200 µM; in experiment [13], > 200 µM; in experiment [14], > 200 µM; in experiment [15] it was 5.77 µM. In addition, the half-maximal inhibitory concentration (IC50) in [16] was > 200 µM.

In the case of `C[C@]1(COC(=O)NNC(=O)c2ccc(O)c(O)c2)[C@H](C(=O)O)N2C(=O)C[C@H]2S1(=O)=O` [Example 69, (2S,3R,5R)-3-(((2-(3,4-dihydroxybenzoyl)hydrazinecarbonyl)oxy)methyl)-3-methyl-7-oxo-4-thia-1-azabicyclo[3.2.0]heptane-2-carboxylic acid 4,4-dioxide], the IC50 is 8.6 µM in experiment [10]; 3.6 µM in experiment [11]; > 200 µM in [12]; > 200 µM in experiment [13]; > 200 µM in experiment [14]; 65.2 µM in experiment [15]. The IC50 in [16] was > 200 µM.

In the case of `C[C@]1(COC(=O)NNC(=O)c2ccc(O)c(O)c2Cl)[C@H](C(=O)O)N2C(=O)C[C@H]2S1(=O)=O` [Example 70, (2S,3R,5R)-3-(((2-(2-chloro-3,4-dihydroxybenzoyl)hydrazinecarbonyl)oxy)methyl)-3-methyl-7-oxo-4-thia-1-azabicyclo[3.2.0]heptane-2-carboxylic acid 4,4-dioxide], the MIC in [1] is 1 µg/mL (≈ 2.09 µM); in [2], > 128 µg/mL; in experiment [3] it was > 128 µg/mL; in [4], > 128 µg/mL; in experiment [5] it was > 128 µg/mL; in [6], > 128 µg/mL. Moreover, the MIC stood at 8 µg/mL in [7], 16 µg/mL in experiment [8] and 8 µg/mL in experiment [9]. Further, the “MIC A.b TNP 41704” value in experiment [7] (Compounds + meropenem (1:1)) came to 8 µg/mL; in experiment [7] (Compounds + sulbactam (1:1)), 4 µg/mL. The “MIC A.b TNP 41708” value in experiment [8] (Compounds + meropenem (1:1)) and in experiment [8] (Compounds + sulbactam (1:1)) was 8 µg/mL in each case. Besides, the “MIC A.b TNP 41709” value in [9] (Compounds + meropenem (1:1)) and in [9] (Compounds + sulbactam (1:1)) was 4 µg/mL in each case. Also, the concentration for half-maximal inhibition (IC50) in experiment [10] is 9.14 µM; in experiment [11] it was 7.18 µM; in [12] it was > 200 µM; in experiment [13], 140 µM; in [14] it was > 200 µM; in experiment [15] it was 29.6 µM. Also, the half-inhibitory concentration (IC50) in [16] is > 200 µM. Further, in experiment [13] (text summary of Table 4), the “activity against KPC-2 of class A (in words)” value is reported as “weak activity”.
